From patent US20260253225A1, “OPTICAL SYSTEM AND METHOD FOR MONITORING ABNORMALITY ASSOCIATED PARAMETERS IN CELL-CONTAINING SAMPLES” (priority 2023, published 2026)

What was measured:
[1] = test system: primary lymphocytes (benign), CD8 (malignant) and Jurkat (malignant) cells; assay: TIRF microscopy of cell membrane fluctuations in a model of the immune synapse; assay type: cell-based, human; conditions: frequency ranges 0-5 Hz and 10-25 Hz, before and after Mibefradil treatment
From the text: So far, intracellular fluctuations as captured by the motion of intracellular particles or by the cell boundaries were described. The fluctuations of the cell membrane may have an impact on the formation and function of the immune synapse that forms between T cells and antigen presenting cells (APCs). To study such a possible impact, the inventors measured fluctuations of Jurkat cells at their interface with coverslips coated with αCD3ε antibodies. Such coverslips often serve as a model for the immune synapse, as the cells spread on the coverslips and get robustly activated. The membrane of the cells was stained with an αCD45 primary antibody, labeled with Alexa647 and imaged by time-lapse TIRF microscopy. […] The reflection light was detected using an avalanche photodiode (APD) with a band-pass filter of 650-720 nm. […] Fluorescence intensity of each pixel in each image was normalized by dividing its intensity with the average intensity of that time-dependent image. The temporal fluctuations of the normalized fluorescence intensities were analyzed by DFT for each pixel in a ROI. […] Live cells were measured without and after ATP depletion, while fixed cells served for control. […] The temporal fluctuations of the normalized fluorescence intensities were analyzed via DFT for each pixel in that ROI. […]

[2] = test system: surface of aggregation of cells; assay: Dynamic reflective laser speckled imaging of cell surface vibrations; assay type: cell-based; conditions: before and after mibefradil treatment, 0-5 Hz range
From the text: The inventors have used the above-described imaging system 120 (the experimental set up was built by modifying an inverted fluorescence microscope set up) to acquire the sequence of tissue's images-one such image is shown in FIG. 19A. The image data analysis described above were then used to determine cell vibrations at the surface of aggregation of cells before and after the augmentation of cell membrane vibrations using mibefradil. […] FIGS. 19C and 19D show power fit parameters for the ASD analysis results in the cells (shown in FIG. 19B) before and after mibefradil treatment: parameter b (FIG. 19C) and sum of amplitudes in the 0-5 Hz range (FIG. 19D). Multiple areas of cells (N=14) were measured and compared each before and after mibefradil treatment.

live Jurkat cells = assay: DIC microscopy of intracellular particles motion (ASD/PSD and MSD analysis); assay type: cell-based, human; conditions: 10 μM blebbistatin treatment, compared with ATP depletion
Protocol: In the following experimental results of the spectral analysis of position fluctuations in time of intracellular particles in Jurkat T lymphocytes, each cell before and after ATP depletion, are presented. […] Depletion of cellular ATP was induced by 30 min incubation with 0.2 μM of the mitochondrial complex 1 inhibitor Rotenone (Sigma-Aldrich, St. Louis, MO, United States) together with 10 mM glycolysis inhibitor 2-deoxy-D-glucose (Sigma-Aldrich, St. Louis, MO, United States). For the visualization and monitoring of intracellular objects, including vesicles, Differential Interference Contrast (DIC) microscopy was employed. Reference is made to FIG. 6a where DIC image of a representative live Jurkat cell is shown. […]
After thresholding the objects, the x and y positions of each identified particle at each point of time (determined by the MultiTracker plug in) were recorded (FIGS. 6c-6e). […] Then, the DFT of these time dependent position changes were calculated for each spatial dimension. The average DFT amplitudes of all moving particles in each cell under each condition were determined for the x and y spatial dimensions. […]
From the position results of the detected intracellular particles, the MSD values for time-lags from 0.3 to 3 s (with a 0.3 s gradual increase) were calculated. The average MSD values were determined for that series of time-lags for each cell before and after ATP depletion. […]

Structure (SMILES) | cell membrane vibrations (average DFT amplitudes) [1] | mechanical vibrations of the cells' membrane [2] | effects on intracellular motion (live Jurkat cells)
COCC(=O)O[C@]1(CCN(C)CCCc2nc3ccccc3[nH]2)CCc2cc(F)ccc2[C@@H]1C(C)C [Mibefradil] | increases cell membrane vibrations in all cell types | an increase in mechanical vibrations of the cells' membrane | 
Cc1ccc2c(c1)C(=O)C1(O)CCN(c3ccccc3)C1=N2 (stereo not drawn) [blebbistatin] |  |  | effects on intracellular motion of blebbistatin treatment and ATP depletion were similar
